In the NIST ThermoML archive (doi:10.1021/je700746a):
± gives the expanded uncertainty stated by the source.

Conditions: 298.15 K; 101.33 kPa; Liquid

Question: For `CC(=O)CC(C)C` [4-methylpentan-2-one], which viscosity is on record?
Answer: Its viscosity is 0.56 ± 0.04 mPa·s.
